Laboratory results as given in ChEMBL document CHEMBL1131036, “Structure-based design, synthesis, and biological evaluation of irreversible human rhinovirus 3C protease inhibitors. 1. Michael acceptor structure-activity studies” (J Med Chem, 1998).
The source made the active and inactive calls. The calls are words filed in the database; no cut-off is given here.

Legend:
[1] = Half-life in rat plasma; assay type: ADME, organism-based
[2] = tested on: HeLa; experiment: Formazan production in HRV-14 virus infected cells; assay type: functional, cell-based; settings: Homo sapiens
[3] = tested on: HeLa; experiment: Concentration of compound that decreased the percentage of formazan production in treated HRV-14 virus infected cells to that produced in uninfected cells; assay type: functional; settings: Homo sapiens
[4] = target: T1, Human rhinovirus A protease (Human rhinovirus sp.) (UniProt Q4U254); experiment: Catalytic rate constant (Kobs/[I]) evaluated against human rhinovirus (HRV) serotype 14 3C Protease (3CP); settings: Human rhinovirus B (HRV-14)
T1 sequence (whole entry): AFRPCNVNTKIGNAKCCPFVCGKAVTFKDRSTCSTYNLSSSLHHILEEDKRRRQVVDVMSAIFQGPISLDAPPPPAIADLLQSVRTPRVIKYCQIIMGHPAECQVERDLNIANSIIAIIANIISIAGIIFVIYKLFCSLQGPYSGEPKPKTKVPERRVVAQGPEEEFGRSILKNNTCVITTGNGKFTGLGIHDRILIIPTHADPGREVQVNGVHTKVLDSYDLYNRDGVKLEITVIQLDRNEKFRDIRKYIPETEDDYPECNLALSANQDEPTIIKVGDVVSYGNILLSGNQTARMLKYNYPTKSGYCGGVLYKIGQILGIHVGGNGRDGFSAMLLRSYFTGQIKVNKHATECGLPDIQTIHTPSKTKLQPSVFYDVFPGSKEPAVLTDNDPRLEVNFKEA

[5] = tested on: Human rhinovirus sp.; experiment: Inhibitory activity of compound towards partial or complete loss of 3C protease (HRV-14) activity in presence of 5 mM dithiothreitol (DTT); No inhibition; assay type: functional, organism-based
[6] = tested on: HeLa; experiment: Concentration of compound that increased the percentage of formazan production in HRV-16 virus infected cells to that of untreated control cells; assay type: functional, cell-based; settings: Homo sapiens
[7] = tested on: HeLa; experiment: Concentration of compound that increased the percentage of formazan production in HRV-2 virus infected cells to that of untreated control cells; assay type: functional, cell-based; settings: Homo sapiens
[8] = target: T1, Human rhinovirus A protease (Human rhinovirus sp.); experiment: Catalytic rate constant (Kobs/[I]) was evaluated against human rhinovirus (HRV) serotype 2 3C Protease (3CP)
[9] = target: T1, Human rhinovirus A protease (Human rhinovirus sp.); experiment: Catalytic rate constant (Kobs/[I]) was evaluated against human rhinovirus (HRV) serotype 16 3C Protease (3CP)
[10] = tested on: Human rhinovirus sp.; experiment: Inhibitory activity of compound towards partial or complete loss of 3C protease (HRV-14) activity in presence of 5 mM dithiothreitol (DTT); inhibition observed; assay type: functional, organism-based

SMILES | half-life [1] [min] | EC50 [2] [µM] | CC50 [3] [µM] | K obs / 1 [4] [M⁻¹ s⁻¹] | inhibition [5] | EC50 [6] [µM] | EC50 [7] [µM] | K obs / 1 [8] [M⁻¹ s⁻¹] | K obs / 1 [9] [M⁻¹ s⁻¹] | inhibition [10]
CC(C)C[C@H](NC(=O)OCc1ccccc1)C(=O)N[C@@H](Cc1ccccc1)C(=O)N[C@H](/C=C1\CCOC1=O)CCC(N)=O | > 240 | 5.2 | > 320 | 10900 | – | – | – | – | – | –
CC(C)C[C@H](NC(=O)OCc1ccccc1)C(=O)N[C@@H](Cc1ccccc1)C(=O)N[C@H](/C=C/C(=O)N1CCc2cc([N+](=O)[O-])ccc21)CCC(N)=O | – | 17 | > 320 | 12000 | inactive | – | – | – | – | –
CC(C)C[C@H](NC(=O)OCc1ccccc1)C(=O)N[C@@H](Cc1ccccc1)C(=O)N[C@H](/C=C/C(=O)N1CCc2ccc(S(=O)(=O)N(C)C)cc21)CCC(N)=O | – | > 100 | – | 28300 | inactive | – | – | – | – | –
CCOC(=O)/C(C)=C/[C@H](CCC(N)=O)NC(=O)[C@H](Cc1ccccc1)NC(=O)[C@H](CC(C)C)NC(=O)OCc1ccccc1 | 20 | 3 | > 320 | 7300 | – | – | – | – | – | –
CCOC(=O)/C=C/[C@H](CCC(N)=O)NC(=O)[C@H](Cc1ccccc1)NC(=O)[C@H](CC(C)C)NC(=O)OCc1ccccc1 | 10 | 0.54 | > 320 | – | – | 2.3 | 1.6 | – | – | –
CON(C)C(=O)/C=C/[C@H](CCC(N)=O)NC(=O)[C@H](Cc1ccccc1)NC(=O)[C@H](CC(C)C)NC(=O)OCc1ccccc1 | 12 | 4 | > 100 | 5900 | – | – | – | – | – | –
CC(=O)N1CC/C(=C\[C@H](CCC(N)=O)NC(=O)[C@H](Cc2ccccc2)NC(=O)[C@H](CC(C)C)NC(=O)OCc2ccccc2)C1=O | – | 0.71 | > 100 | 156000 | – | – | – | 13000 | 39000 | –
CC(C)C[C@H](NC(=O)OCc1ccccc1)C(=O)N[C@@H](Cc1ccccc1)C(=O)N[C@H](/C=C/C(=O)N1CCN(C)C1=O)CCC(N)=O | – | 5 | > 320 | 312000 | – | – | – | – | – | Yes
CC(C)C[C@H](NC(=O)OCc1ccccc1)C(=O)N[C@@H](Cc1ccccc1)C(=O)N[C@H](/C=C/C(=O)OC1CCCCC1)CCC(N)=O | 4 | 3.6 | > 320 | 3700 | – | – | – | – | – | –
CC(C)C[C@H](NC(=O)OCc1ccccc1)C(=O)N[C@@H](Cc1ccccc1)C(=O)N[C@H](/C=C/[N+](=O)[O-])CCC(N)=O | – | > 100 | 100 | 500000 | – | – | – | – | – | Yes
CC(C)C[C@H](NC(=O)OCc1ccccc1)C(=O)N[C@@H](Cc1ccccc1)C(=O)N[C@H](/C=C/C(=O)c1ccco1)CCC(N)=O | – | 2.4 | 19 | 460000 | – | – | – | – | – | Yes
CC(C)C[C@H](NC(=O)OCc1ccccc1)C(=O)N[C@@H](Cc1ccccc1)C(=O)N[C@H](/C=C/C(=O)N1CCOC1=O)CCC(N)=O | – | 1.6 | > 100 | 600000 | – | – | – | – | – | Yes
CC(C)C[C@H](NC(=O)OCc1ccccc1)C(=O)N[C@@H](Cc1ccccc1)C(=O)N[C@H](/C=C/C(=O)N1CCCC1=O)CCC(N)=O | – | 0.89 | > 320 | 126000 | – | – | – | – | – | Yes
CC(=O)/C=C/[C@H](CCC(N)=O)NC(=O)[C@H](Cc1ccccc1)NC(=O)[C@H](CC(C)C)NC(=O)OCc1ccccc1 | – | 2 | 60 | 54000 | – | – | – | 2700 | 8900 | –
CC(C)C[C@H](NC(=O)OCc1ccccc1)C(=O)N[C@@H](Cc1ccccc1)C(=O)N[C@H](/C=C/C(=O)n1cccc1)CCC(N)=O | – | 1.4 | 6.3 | 400000 | – | – | – | – | – | –
CC(C)C[C@H](NC(=O)OCc1ccccc1)C(=O)N[C@@H](Cc1ccccc1)C(=O)N[C@H](/C=C/C(=O)N1CCc2ccc([N+](=O)[O-])cc21)CCC(N)=O | – | > 320 | > 320 | 29000 | inactive | – | – | – | – | –
COC(=O)/C=C/[C@H](CCC(N)=O)NC(=O)[C@H](Cc1ccccc1)NC(=O)[C@H](CC(C)C)NC(=O)OCc1ccccc1 | – | 1.3 | > 320 | 20000 | – | – | – | – | – | –
CC(C)C[C@H](NC(=O)OCc1ccccc1)C(=O)N[C@@H](Cc1ccccc1)C(=O)N[C@H](/C=C/C(=O)N1CCc2ccccc21)CCC(N)=O | > 80 | 16 | > 320 | 6500 | – | – | – | – | – | –
